Measurements reported in US4229435A, “Preparation of blood fraction” (priority 1978, dated 1980).

What was measured:
Format in all cases: biochemical
Details in all cases: 5 min 37° C., then iodoacetic acid
F V = target: T1, F V (Homo sapiens, UniProt P12259); experiment: Coagulation factor V activity in plasma after reducing agent + iodoacetic acid
T1 construct: from tissue; host or cells: human citrated blood plasma
Description: (§1) Human blood with anti-coagulating agent (9 parts blood+1 part 3.8% trisodium citrate) is centrifuged and the following tests with plasma were carried out:
(§2) The plasma is divided into 8 ml portions, which are preheated at 37° C. for 5 min. DTT is added in different concentrations, see table 1 below, and is incubated for 5 min. at 37° C. Then iodoacetic acid, 3 mol per mol DTT, is added, and incubation takes place for 15 min. at 37° C. The plasma samples are distributed in portions of about 0.2 ml and are immediately frozen at -70° C. Testing of different coagulation factors is made in known manner.
(§3) The plasma is divided into 8 ml portions, which are preheated at 37° C. for 5 min. DTE is added in different concentrations (see table 2), and is incubated for 5 minutes at 37° C. Then, iodoacetic acid (3 mol per mol DTE) is added and incubation is carried out for 15 minutes at 37° C. The plasma samples are distributed in portions of about 0.2 ml and are immediately frozen at -70° C. Testing of different coagulation factors is made in a manner known per se.
as §3, with “minutes. Lipoic acid” for “min. DTE”, “3),” for “2),”, “lipoic acid)” for “DTE)”
as §3, with “minutes. Mercaptoethanol” for “min. DTE”, “4),” for “2),”, “mercaptoethanol)” for “DTE)”
as §3, with “minutes. Potassium borohydride” for “min. DTE”, “5,” for “2),”, “potassium borohydride)” for “DTE)”

F VII = target: T2, F VII (Homo sapiens, UniProt P08709); experiment: Coagulation factor VII activity in plasma after reducing agent + iodoacetic acid
T2 construct: from tissue; host or cells: human citrated blood plasma
T2 sequence (P08709 61-466): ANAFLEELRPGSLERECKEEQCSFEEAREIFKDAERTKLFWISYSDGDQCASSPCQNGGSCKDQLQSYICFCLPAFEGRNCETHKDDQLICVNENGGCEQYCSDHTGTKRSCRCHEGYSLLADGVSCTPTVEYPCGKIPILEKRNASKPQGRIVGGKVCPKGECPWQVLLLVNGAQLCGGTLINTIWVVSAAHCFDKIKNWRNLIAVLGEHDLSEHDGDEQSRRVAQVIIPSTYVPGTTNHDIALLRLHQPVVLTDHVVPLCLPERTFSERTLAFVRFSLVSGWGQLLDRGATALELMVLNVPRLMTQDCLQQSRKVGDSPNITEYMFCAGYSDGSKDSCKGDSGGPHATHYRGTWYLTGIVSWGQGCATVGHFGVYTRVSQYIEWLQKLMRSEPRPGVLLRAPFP
Description: as §1, §2, §3
as §3, with “minutes. Lipoic acid” for “min. DTE”, “3),” for “2),”, “lipoic acid)” for “DTE)”
as §3, with “minutes. Mercaptoethanol” for “min. DTE”, “4),” for “2),”, “mercaptoethanol)” for “DTE)”
as §3, with “minutes. Potassium borohydride” for “min. DTE”, “5,” for “2),”, “potassium borohydride)” for “DTE)”

F XI = target: T3, F XI (Homo sapiens, UniProt P03951); experiment: Coagulation factor XI activity in plasma after reducing agent + iodoacetic acid
T3 construct: from tissue; host or cells: human citrated blood plasma
T3 sequence (P03951 19-625): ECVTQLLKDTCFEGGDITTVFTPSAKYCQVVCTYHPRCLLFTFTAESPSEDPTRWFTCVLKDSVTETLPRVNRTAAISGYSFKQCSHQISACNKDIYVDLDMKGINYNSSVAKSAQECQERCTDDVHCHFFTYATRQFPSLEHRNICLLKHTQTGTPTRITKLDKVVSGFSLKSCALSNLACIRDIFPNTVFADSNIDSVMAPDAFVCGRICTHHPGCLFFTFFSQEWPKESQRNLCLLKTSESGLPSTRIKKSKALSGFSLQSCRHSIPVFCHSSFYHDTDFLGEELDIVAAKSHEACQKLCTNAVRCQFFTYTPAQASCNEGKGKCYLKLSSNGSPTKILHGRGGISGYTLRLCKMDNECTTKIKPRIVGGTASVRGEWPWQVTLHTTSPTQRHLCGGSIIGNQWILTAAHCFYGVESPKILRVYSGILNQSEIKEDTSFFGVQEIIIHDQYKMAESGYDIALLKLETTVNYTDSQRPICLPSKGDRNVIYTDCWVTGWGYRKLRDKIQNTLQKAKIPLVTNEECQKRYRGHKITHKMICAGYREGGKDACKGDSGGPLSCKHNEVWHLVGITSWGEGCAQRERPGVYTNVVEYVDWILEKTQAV
Description: as §1, §2, §3
as §3, with “minutes. Lipoic acid” for “min. DTE”, “3),” for “2),”, “lipoic acid)” for “DTE)”
as §3, with “minutes. Mercaptoethanol” for “min. DTE”, “4),” for “2),”, “mercaptoethanol)” for “DTE)”
as §3, with “minutes. Potassium borohydride” for “min. DTE”, “5,” for “2),”, “potassium borohydride)” for “DTE)”

F XII = target: T4, F XII (Homo sapiens, UniProt P00748); experiment: Coagulation factor XII activity in plasma after reducing agent + iodoacetic acid
T4 construct: from tissue; host or cells: human citrated blood plasma
T4 sequence (P00748 20-615): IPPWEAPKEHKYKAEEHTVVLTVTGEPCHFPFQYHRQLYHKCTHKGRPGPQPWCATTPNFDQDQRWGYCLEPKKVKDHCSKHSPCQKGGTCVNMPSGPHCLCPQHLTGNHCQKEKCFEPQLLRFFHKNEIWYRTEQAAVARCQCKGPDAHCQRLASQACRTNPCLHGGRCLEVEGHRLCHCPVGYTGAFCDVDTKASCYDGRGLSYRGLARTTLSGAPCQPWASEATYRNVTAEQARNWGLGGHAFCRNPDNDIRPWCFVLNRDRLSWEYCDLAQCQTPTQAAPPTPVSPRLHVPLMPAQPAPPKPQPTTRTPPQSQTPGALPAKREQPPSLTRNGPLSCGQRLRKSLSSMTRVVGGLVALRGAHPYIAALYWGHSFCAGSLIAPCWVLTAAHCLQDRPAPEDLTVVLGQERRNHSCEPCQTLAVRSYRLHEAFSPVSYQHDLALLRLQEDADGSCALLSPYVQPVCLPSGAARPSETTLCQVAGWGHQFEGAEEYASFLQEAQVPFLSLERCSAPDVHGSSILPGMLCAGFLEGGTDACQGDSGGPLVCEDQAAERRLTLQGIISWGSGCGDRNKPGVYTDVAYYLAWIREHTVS
Description: as §1, §2, §3
as §3, with “minutes. Lipoic acid” for “min. DTE”, “3),” for “2),”, “lipoic acid)” for “DTE)”
as §3, with “minutes. Mercaptoethanol” for “min. DTE”, “4),” for “2),”, “mercaptoethanol)” for “DTE)”
as §3, with “minutes. Potassium borohydride” for “min. DTE”, “5,” for “2),”, “potassium borohydride)” for “DTE)”

F IX = target: T5, F IX (Homo sapiens, UniProt P00740); experiment: Coagulation factor IX activity in plasma after reducing agent + iodoacetic acid
T5 construct: from tissue; host or cells: human citrated blood plasma
T5 sequence (P00740 47-461): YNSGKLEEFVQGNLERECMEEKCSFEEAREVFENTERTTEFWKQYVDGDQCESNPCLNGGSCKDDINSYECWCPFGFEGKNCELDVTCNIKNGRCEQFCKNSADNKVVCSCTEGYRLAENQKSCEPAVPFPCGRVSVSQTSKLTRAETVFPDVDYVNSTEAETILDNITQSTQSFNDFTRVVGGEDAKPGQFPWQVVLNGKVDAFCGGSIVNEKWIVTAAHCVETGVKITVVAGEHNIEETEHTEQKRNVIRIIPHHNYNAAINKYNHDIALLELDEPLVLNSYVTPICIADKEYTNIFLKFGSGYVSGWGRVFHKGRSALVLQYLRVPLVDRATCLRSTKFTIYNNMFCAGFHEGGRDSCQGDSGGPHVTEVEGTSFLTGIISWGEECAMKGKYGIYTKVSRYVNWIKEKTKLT
Description: as §1, §2, §3
as §3, with “minutes. Lipoic acid” for “min. DTE”, “3),” for “2),”, “lipoic acid)” for “DTE)”
as §3, with “minutes. Mercaptoethanol” for “min. DTE”, “4),” for “2),”, “mercaptoethanol)” for “DTE)”
as §3, with “minutes. Potassium borohydride” for “min. DTE”, “5,” for “2),”, “potassium borohydride)” for “DTE)”

F II = target: T6, F II (Homo sapiens, UniProt P00734); experiment: Coagulation factor II activity in plasma after reducing agent + iodoacetic acid
T6 construct: from tissue; host or cells: human citrated blood plasma
Description: as §1, §2, §3
as §3, with “minutes. Lipoic acid” for “min. DTE”, “3),” for “2),”, “lipoic acid)” for “DTE)”
as §3, with “minutes. Mercaptoethanol” for “min. DTE”, “4),” for “2),”, “mercaptoethanol)” for “DTE)”
as §3, with “minutes. Potassium borohydride” for “min. DTE”, “5,” for “2),”, “potassium borohydride)” for “DTE)”

F X = target: T7, F X (Homo sapiens, UniProt P00742); experiment: Coagulation factor X activity in plasma after reducing agent + iodoacetic acid
T7 construct: from tissue; host or cells: human citrated blood plasma
T7 sequence (P00742 235-488 limits assumed): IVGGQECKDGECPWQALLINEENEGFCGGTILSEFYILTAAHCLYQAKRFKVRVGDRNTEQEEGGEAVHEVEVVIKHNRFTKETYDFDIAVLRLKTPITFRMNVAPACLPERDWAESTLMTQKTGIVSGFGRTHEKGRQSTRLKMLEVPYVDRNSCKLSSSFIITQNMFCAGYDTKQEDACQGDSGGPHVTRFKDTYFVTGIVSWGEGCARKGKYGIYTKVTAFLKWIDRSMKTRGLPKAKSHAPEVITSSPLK
T7 sequence (P00742 41-179 limits assumed): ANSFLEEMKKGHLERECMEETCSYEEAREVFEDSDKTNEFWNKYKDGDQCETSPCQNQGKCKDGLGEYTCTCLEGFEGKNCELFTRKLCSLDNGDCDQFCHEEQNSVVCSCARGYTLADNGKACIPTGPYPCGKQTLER
Description: as §1, §2, §3
as §3, with “minutes. Lipoic acid” for “min. DTE”, “3),” for “2),”, “lipoic acid)” for “DTE)”
as §3, with “minutes. Mercaptoethanol” for “min. DTE”, “4),” for “2),”, “mercaptoethanol)” for “DTE)”
as §3, with “minutes. Potassium borohydride” for “min. DTE”, “5,” for “2),”, “potassium borohydride)” for “DTE)”

[1] = plasma + 0.14 mg reducing agent
[2] = plasma + 0.28 mg reducing agent
[3] = human, 0.1 mg reducing agent/ml plasma (sample C)

T1 sequence (P12259 29-2224): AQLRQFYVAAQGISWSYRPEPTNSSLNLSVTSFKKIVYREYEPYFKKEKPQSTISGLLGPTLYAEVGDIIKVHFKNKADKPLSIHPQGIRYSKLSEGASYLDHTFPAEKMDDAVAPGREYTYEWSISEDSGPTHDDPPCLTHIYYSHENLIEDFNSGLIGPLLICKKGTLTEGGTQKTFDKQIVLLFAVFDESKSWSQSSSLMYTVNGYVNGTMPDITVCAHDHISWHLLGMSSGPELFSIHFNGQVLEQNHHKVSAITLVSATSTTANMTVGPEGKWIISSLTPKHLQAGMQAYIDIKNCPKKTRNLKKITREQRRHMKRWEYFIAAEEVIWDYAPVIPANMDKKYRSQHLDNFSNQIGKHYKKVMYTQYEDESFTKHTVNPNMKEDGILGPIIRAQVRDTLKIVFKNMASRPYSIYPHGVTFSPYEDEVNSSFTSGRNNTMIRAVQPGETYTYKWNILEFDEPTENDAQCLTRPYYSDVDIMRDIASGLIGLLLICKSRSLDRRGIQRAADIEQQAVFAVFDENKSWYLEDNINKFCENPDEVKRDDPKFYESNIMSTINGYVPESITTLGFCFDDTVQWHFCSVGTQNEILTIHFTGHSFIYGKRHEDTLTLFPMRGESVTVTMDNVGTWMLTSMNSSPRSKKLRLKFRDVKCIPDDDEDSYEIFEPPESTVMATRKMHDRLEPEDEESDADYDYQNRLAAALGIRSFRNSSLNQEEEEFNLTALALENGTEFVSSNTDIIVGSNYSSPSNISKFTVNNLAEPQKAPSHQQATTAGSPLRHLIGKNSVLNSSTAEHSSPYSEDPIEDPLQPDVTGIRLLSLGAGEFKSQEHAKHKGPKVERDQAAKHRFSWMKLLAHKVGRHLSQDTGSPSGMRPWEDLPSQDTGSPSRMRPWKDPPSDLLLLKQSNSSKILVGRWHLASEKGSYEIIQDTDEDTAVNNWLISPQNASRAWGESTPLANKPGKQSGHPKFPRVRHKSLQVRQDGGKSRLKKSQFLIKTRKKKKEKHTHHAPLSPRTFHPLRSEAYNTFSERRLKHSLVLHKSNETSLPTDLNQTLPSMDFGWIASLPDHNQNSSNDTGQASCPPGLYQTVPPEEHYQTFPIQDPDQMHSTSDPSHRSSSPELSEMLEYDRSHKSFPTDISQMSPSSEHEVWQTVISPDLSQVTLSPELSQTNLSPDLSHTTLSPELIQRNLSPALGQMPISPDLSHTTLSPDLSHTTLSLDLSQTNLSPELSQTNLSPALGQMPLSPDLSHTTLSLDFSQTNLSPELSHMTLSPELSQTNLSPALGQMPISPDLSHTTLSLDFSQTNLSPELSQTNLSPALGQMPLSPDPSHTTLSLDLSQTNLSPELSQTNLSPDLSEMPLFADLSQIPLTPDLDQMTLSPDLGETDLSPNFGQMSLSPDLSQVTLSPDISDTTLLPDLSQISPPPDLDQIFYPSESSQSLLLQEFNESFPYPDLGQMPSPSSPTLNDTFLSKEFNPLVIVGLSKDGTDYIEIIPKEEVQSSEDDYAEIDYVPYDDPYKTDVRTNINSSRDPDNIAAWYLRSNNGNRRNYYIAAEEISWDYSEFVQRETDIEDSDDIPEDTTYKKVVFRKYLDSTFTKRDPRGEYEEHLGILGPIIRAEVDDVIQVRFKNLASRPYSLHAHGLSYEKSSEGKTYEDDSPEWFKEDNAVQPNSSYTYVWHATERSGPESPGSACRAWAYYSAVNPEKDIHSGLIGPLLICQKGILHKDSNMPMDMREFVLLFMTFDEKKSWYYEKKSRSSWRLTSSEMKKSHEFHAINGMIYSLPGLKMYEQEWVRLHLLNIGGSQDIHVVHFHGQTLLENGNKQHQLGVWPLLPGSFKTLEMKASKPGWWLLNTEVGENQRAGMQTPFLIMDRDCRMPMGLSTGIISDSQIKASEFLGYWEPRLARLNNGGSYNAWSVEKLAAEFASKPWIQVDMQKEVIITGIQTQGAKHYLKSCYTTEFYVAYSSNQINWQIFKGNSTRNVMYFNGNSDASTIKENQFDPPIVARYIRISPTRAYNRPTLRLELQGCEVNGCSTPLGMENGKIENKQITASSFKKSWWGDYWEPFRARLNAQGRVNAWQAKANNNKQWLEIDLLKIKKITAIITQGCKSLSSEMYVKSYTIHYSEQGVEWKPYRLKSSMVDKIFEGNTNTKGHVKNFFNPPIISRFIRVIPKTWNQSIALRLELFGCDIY

Row | Compound | Coagulation factor F V (F V; plasma + 0.2 mg reducing agent) | Coagulation factor F V (F V; plasma + 0.4 mg reducing agent) | Coagulation factor F VII (F VII; plasma + 0.2 mg reducing agent) | Coagulation factor F VII (F VII; plasma + 0.4 mg reducing agent) | Coagulation factor F XI (F XI; plasma + 0.2 mg reducing agent) | Coagulation factor F XI (F XI; plasma + 0.4 mg reducing agent) | Coagulation factor F XII (F XII; plasma + 0.2 mg reducing agent) | Coagulation factor F XII (F XII; plasma + 0.4 mg reducing agent) | Coagulation factor F IX (F IX; plasma + 0.2 mg reducing agent) | Coagulation factor F IX (F IX; plasma + 0.4 mg reducing agent) | Coagulation factor F II (F II; plasma + 0.2 mg reducing agent) | Coagulation factor F II (F II; plasma + 0.4 mg reducing agent) | Coagulation factor F X (F X; plasma + 0.2 mg reducing agent) | Coagulation factor F X (F X; plasma + 0.4 mg reducing agent) | further results
1 | [BH4-].[K+] [KBH4, potassium borohydride] | – | – | – | – | – | – | – | – | – | – | – | – | – | – | Coagulation factor F V (F V; [1]): 74 % of control; Coagulation factor F V (F V; [2]): 93 % of control; Coagulation factor F VII (F VII; [1]): 131 % of control; Coagulation factor F VII (F VII; [2]): 127 % of control; Coagulation factor F XI (F XI; [1]): 94 % of control; Coagulation factor F XI (F XI; [2]): 107 % of control; Coagulation factor F XII (F XII; [1]): 86 % of control; Coagulation factor F XII (F XII; [2]): 83 % of control; Coagulation factor F IX (F IX; [1]): 77 % of control; Coagulation factor F IX (F IX; [2]): 71 % of control; Coagulation factor F II (F II; [1]): 92 % of control; Coagulation factor F II (F II; [2]): 96 % of control; Coagulation factor F X (F X; [1]): 86 % of control; Coagulation factor F X (F X; [2]): 68 % of control
2 | O=C(O)CCCCC1CCSS1 (stereo not shown) [lipoic acid] | 91 % of control | 215 % of control | 203 % of control | 285 % of control | 32 % of control | 39 % of control | 78 % of control | 98 % of control | 52 % of control | 58 % of control | 103 % of control | 103 % of control | 26 % of control | 32 % of control | Coagulation factor F V (F V; 0.1 mg reducing agent/ml plasma (sample C)): 100 % of control; activity at 100 µg/mL (F VII; [3]): 252%; activity at 100 µg/mL (F XI; [3]): 67%; activity at 100 µg/mL (F XII; [3]): 74%; activity at 100 µg/mL (F IX; [3]): 58%; activity at 100 µg/mL (F II; [3]): 100%; activity at 100 µg/mL (F X; [3]): 40%
3 | OCCS [mercaptoethanol] | 61 % of control | 84 % of control | 69 % of control | 29 % of control | 74 % of control | 62 % of control | 102 % of control | 121 % of control | 33 % of control | 35 % of control | 89 % of control | 74 % of control | 75 % of control | 37 % of control | –
